Measurements taken from patent publication US20120149100A1, “CARDIOMYOCYTE CELL POPULATIONS” (Mount Sinai School of Medicine, priority 2005, published 2012).

What was measured:
Ainv-Notch4 ES cells = assay: Flow cytometric analysis for HA-Notch4 expression after induction; format: cell-based; conditions: one day following Dox 0.5 μg/ml induction
Experimental: Dissociated cells were incubated with biotinylated mAbs (against Flk-1, VE-cad, or CD41) in PBS containing 10% FCS on ice for 30 min. The cells were then washed once and incubated with streptavidin-PE-Cy5 (BD Pharmingen) for another 30 minutes on ice. Following an additional two washes, the cells were analyzed on a FACSCalibur flow cytometer (BectonDicldnson) or sorted on a Moflo cell sorter (Cytomation). For Troponin T or HA staining, cells were fixed in 4% paraformaldehyde (PFA) for 30 minutes and then incubated in a permeabilizing buffer consisting of PBS with 10% FCS and 0.1% saponin (Sigma) for 10 minutes. Following fixing and permeabilization, the cells were washed twice and incubated with an anti-Troponin T (unconjugated mouse antibody, Lab Vision) or anti-HA (conjugated with biotin, Covance) antibody for 30 minutes. After two washes, the cells were incubated with a secondary APC-conjugated goat anti-mouse antibody (for Troponin T antibody) or streptavidin-PE-Cy5 (for biotinylated HA antibody) for 30 minutes. Finally, the cells were washed twice with permeabilizing buffer and then twice with buffer without saponin. […] One day following Dox (0.5 μg/ml) induction, 90% of Ainv-Notch4 ES cells expressed Notch4 as determined by flow cytometric analysis for HA expression (FIG. 2A).

[1] = system: BL-CFC in day 3.25 Flk-1+ cells; assay: Blast colony (BL-CFC) assay; format: cell-based
Experimental: The blast and hematopoietic colony assays were performed as described Kennedy et al., (2003) Metods Enzymol. 365:39-59. Dox was added at 0.5 μg/ml to induce Notch4 expression and y-secretase inhibitor X (L685,458, Calbiochem) at 5 μM to blook Notch signaling in the:blast colony culture. To generate mixed hemangioblastkardiac colonies, blast colony growth was initiated in standard blast colony cultures containing Dox for 24 hours. The developing colonies were then washed from with methycellulose with IMDM containing 10% FCS to remove Dox. The colonies were recultured in blast colony metycellulose supplemented with Erythropoietin (2 U/ml) and IL-3 (1% conditioned medium). Mixed colonies containing an inner cardiac core surrounded by outer hematopoietic cells were picked for analysis at day 7.
To determine if the BL-CFC is the target of the Notch4-induced fate change, day 3.25 Flk-1^+ cells were cultured in the BL-CFC assay in the presence or absence of Dox. In the absence of Dox, this population generated typical blast colonies that appeared as grape-like clusters of cells. When cultured in the presence of Dox, these cells formed compact colonies of tightly packed cells that were easy to distinguish from the blast colonies (FIG. 5A). The number of these compact colonies was similar to the number of blast cell colonies that developed in the non-induced cultures (FIG. 5B). […] None of these colonies expressed gata-1. As shown previously, blast colonies expressed the endothelial genes as well as gata-1. […] With extended time in the methylcellulose cultures, some of the compact colonies generated contracting cells. To quantify the proportion of colonies that generated contracting cells, individual colonies were picked at day 7 of culture and replated in microtiter wells in the cardiac cultures. Approximately 70% of the compact colonies generated contracting cells between 2 and 7 days of culture. The contracting cells expressed cTnT, confirming that they were cardiomyocytes (FIG. 5D).

[2] = system: Flk-1+ cells isolated from day 3.25 Ainv-Notch4 EBs; assay: Cardiac assay of reaggregated Flk-1+ cells from Ainv-Notch4 EBs; format: cell-based
Experimental: (§1) Sorted cells were reaggregated for 24 hours in StemPro-34 serum-free medium (hwitrogen) containing 2 mM L-glutamine (GIBCO/BRL), transferrin (200 μg/ml), 0.5 mM ascorbic acid and 4.5×10^−4 M MTG at 3×10^5 cells per ml in ultra-low-attachment 24-well plates (Costar). Single aggregates or pools of aggregates were replated in gelatin-coated 96- or 24-well plates containing SternPro with 2 mM L-glutamine for cardiac culture. Following 2 to 4 days of culture the proportion of aggregates containing contracting cells was scored and the number of Troponin T-positive cells was evaluated by flow cytometric analyses. For the aggregated and cardiac cultures, doxycycline (Dox) was used at 0.5 μg/ml and γ-secretase inhibitor X at 5 μM (dissolved in DMSO). The same concentration of DMSO was added to the control cultures. Medium was changed everyday to provide fresh Dox and inhibitor.
To investigate the potential of Notch4 to initiate a cardiogenic program in this early stage of hemangioblast population, Flk-1^+ cells isolated from day 3.25 Ainv-Notch4 EBs were reaggregated for 24 hours in the presence or absence of Dox as described above. The resulting aggregates were then cultured in gelatin-coated microliter wells containing serum-free media (hereafter referred to as cardiac cultures). These conditions efficiently support cardiomyooyte development from cardiogenic mesoderm (Kouskoff et al. (2005) Proc. Natl. Acad. Sci. 102:13170-13175). Both single aggregates and pools of aggregates were cultured for 2-3 days. Following this maturation step, the cultures of single aggregates were scored for the presence of contracting cells indicative of cardiomyocyte differentiation. None of the aggregates generated in the absence of Dox (−Dox/−Dox) contained contracting cells (FIG. 3A). Rather, these aggregates underwent heniatopoietio differentiation as indicated by the development of hemoglobinized erythroid cells, an observation consistent with the hemangioblast potential of this population. […] (FIG. 3B, right panel). Few cTnT cells were atected among the adhesive cells generated from non-induced aggregates (FIG. 3B, left panel). Cultures of the pooled induced aggregates generated extensive areas of contracting cells. Contracting cells were not detected in the cultures of the non-induced aggregates. Flow cytometric analysis of the differentiated progeny from pooled inducedaggregates confirmed the dramatic cardiogenic effect of Notch4 as greater than 60% of the entire cell population expressed cTnT after 2 days in the cardiac cultures (+Dox/−Dox, FIG. 3C). Less than 1% of the cells generated from the non-induced population expressed cTnT (−Dox/−Dox, FIG. 3C). […]

[3] = system: Flk-1+ cells from Bry-GFP ES cells on OP9-DL1 cells; assay: Culture of Flk-1+ cells on Dll-1 expressing OP9 stromal cells; format: cell-based; conditions: inhibitor 5 μM; 3 days of culture
Experimental: OP9-DL1 cells described by Schmitt et al. (2004) Nat. Immunol. 5:410-417 were cultured in a 24-well plate and irradiated before use. Day 3.25 EB-derived Flk-1^+ cells (3×10^4 per well) were seeded onto OP9 cells in the same medium used for the cardiac cultures. γ-Secretase inhibitor X (dissolved in DMSO) at 5 μM or a corresponding volume of DMSO was included in the cultures. Medium was changed everyday to supply fresh inhibitor. After 3 days of culture, the cells were harvested and subjected to flow oytometric analysis to determine the number of Troponin T-positive cells.
Following 3 days of culture, areas of contracting cells were detected on the OP9 stromal cells, with approximately 24% of the cells expressing cTnT (FIG. 6A).

[4] = system: posterior primitive streak explants; assay: E7.5 primitive streak explant cultures; format: cell-based, mouse; conditions: inhibitor 10 μM; 5 days of culture
Experimental: Female swiss webster mice (Taconic) were mated with male GFP-Bry^+/− mice described by Huber et al., (2004) Nature 432:625-630. Pregnant mice were sacrificed 7.5 days after mating and the embryos were isolated. Dissections were performed under a Leica MZFLIII fluorescence dissecting stereomicrosope to visualize the GFP expression in the primitive streak (PS). Using tungsten needles (Fine Science tools), the PS of GFP-Bry^+/− embryos were isolated and separated into posterior and anterior regions. Individual anterior and posterior PS pieces were plated in gelatin-coated 96-well dishes with medium for cardiac cultures. γ-Secretase inhibitor at 10 μM or a corresponding volume of DMSO was included in the cultures. Medium was changed everyday to provide fresh inhibitor. After 3-5 days, the explants were scored for the presence of contracting foci and harvested for gene expression analysis.
When isolated PPS are plated in the cardiac cultures contracting cardiomyocytes can be detected within 3 to 5 days. To investigate whether Notch signalling is required for the development of the cardiomyocyte lineage from embryo-derived tissues, PPSs were cultured in the presence or absence of γ-secretase inhibitor and then analyzed for the development of contracting cells and for the expression of cardiac genes. […]

[5] = system: GFP-Bry+/Flk-1- fraction from GFP-Bry/Ainv-Notch4 ES cells; assay: Cardiac assay of reaggregated GFP-Bry+/Flk-1- cells; format: cell-based
Experimental: as §1
Cardiac potential has been mapped to the Flk-1^− fraction of brachytury-expressing mesoderm (GFP-Bry^+/Flk-1^−) at early singes of EB development (Kouskoff et al., supra). To investigate the role of Notch4 during cardiac differentiation of this mesoderm, the GFP cDNA was targeted to the brachyury locus of Ainv cells to enable the overexpression of Notch4 in the GFP-Bry^+/Flk-1^− population. The GFP-Bry^+/Flk-1^− fraction was isolated from clay 3.25 EBs derived from the GFP-Bry/Ainv-Notch4 ES cells, reaggregated for 1 day and the resultant aggregates plated in cardiac cultures. γ-Secretase inhibitor or Dox was added to the cells either during the reaggregation step or to the cardiac cultures to further define the stage specific effects of Notch4. Three days following differentiation of the aggregates in the cardiac cultures, the proportion of cTnT-positive cells and the expression of cardiac genes were analyzed (FIG. 7). […] As expected, this population expressed the spectrum of cardiac genes. Induction of Notch4 during the reaggregation stage (+Dox/−Dox) enhanced cardiomyocyte development over that observed in the control cultures (FIG. 7C). […]

[6] = inhibitor during the aggregation stage (+I/-I)
[7] = +Dox+inhibitor/-Dox, inhibitor 5 μM during the reaggregation step

SMILES | Ainv-Notch4 ES cells expressing Notch4 (HA expression) (Ainv-Notch4 ES cells) [%] | mixed colonies that generated contracting cells ([1]; Dox exposure limited to 24 hours, replated into cardiac cultures) [%] | compact colonies that generated contracting cells ([1]; colonies formed in presence of Dox, picked at day 7, 2 to 7 days in cardiac cultures) | cell population expressing cTnT ([2]; +Dox/-Dox, pooled aggregates, 2 days in cardiac cultures) | aggregates containing contracting cells ([2]; Flk-1+ cells from day 4 EBs, Dox 24 hours) [%] | cardiomyocyte development (cTnT+ cells) [3] | colony type (blast vs compact colonies) ([1]; inhibitor 5 μM together with Dox 0.5 μg/ml, 4 days) | PS explants that generated contracting cells [4] | expression of cardiac genes in explants [4] | proportion of cTnT-expressing population compared to control ([5]; inhibitor added to the cardiac cultures (-I/+I)) | development of cTnT-positive contracting cells [5, 6] | expression levels of the cardiac genes [5, 6] | expression of cardiac genes [2, 7] | generation of contracting cells [2, 7]
C[C@H]1c2cccc(O)c2C(=O)C2=C(O)[C@]3(O)C(=O)C(C(N)=O)=C(O)[C@@H](N(C)C)[C@@H]3[C@@H](O)[C@@H]21 [Dox, doxycycline] | 90 | 45 | Approximately 70% | greater than 60% | 25 | – | – | – | – | – | – | – | – | –
CC(C)C[C@H](NC(=O)[C@H](Cc1ccccc1)C[C@@H](O)[C@H](Cc1ccccc1)NC(=O)OC(C)(C)C)C(=O)N[C@@H](Cc1ccccc1)C(N)=O [γ-secretase inhibitor] | – | – | – | – | – | inhibited | reversal back to blast colonies | Less than 10% | inhibited in some but not all of the explants | modestly increased | suppressed | reduced | inhibited | inhibited
